Test [1] deals with T1, Cannabinoid CB1 receptor/orexin receptor 1 complex (Homo sapiens) (UniProt P21554+O43613). Conditions: RD-HGA16.
Description: Antagonist activity at CB1-OX1 heterodimer (unknown origin) expressed in RD-HGA16 cells assessed as inhibition of CP55940-induced calcium mobilization by fluorometric imaging plate reader analysis
For test [2], the target named is T2, Orexin/Hypocretin receptor type 1 (Homo sapiens) (UniProt O43613).
T2 sequence (whole entry): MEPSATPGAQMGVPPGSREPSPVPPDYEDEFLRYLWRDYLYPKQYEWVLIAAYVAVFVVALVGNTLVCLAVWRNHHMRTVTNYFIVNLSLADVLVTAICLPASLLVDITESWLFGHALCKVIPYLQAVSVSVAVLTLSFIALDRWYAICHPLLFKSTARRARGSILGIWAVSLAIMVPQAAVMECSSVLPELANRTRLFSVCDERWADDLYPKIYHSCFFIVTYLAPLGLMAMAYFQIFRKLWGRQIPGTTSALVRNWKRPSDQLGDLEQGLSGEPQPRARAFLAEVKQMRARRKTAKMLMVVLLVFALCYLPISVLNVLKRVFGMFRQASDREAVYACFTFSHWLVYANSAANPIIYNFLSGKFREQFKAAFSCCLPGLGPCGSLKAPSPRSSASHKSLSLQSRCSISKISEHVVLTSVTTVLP
Description: Antagonist activity at OX1 receptor (unknown origin) expressed in RD-HGA16 cells assessed as inhibition of orexin A-induced calcium mobilization by fluorometric imaging plate reader analysis. The class given is functional, cell-based.

The target of test [3] is Cannabinoid receptor 1 (Homo sapiens) (UniProt P21554). The settings on record: RD-HGA16.
Sequence of Cannabinoid receptor 1 (Homo sapiens) (P21554 whole entry): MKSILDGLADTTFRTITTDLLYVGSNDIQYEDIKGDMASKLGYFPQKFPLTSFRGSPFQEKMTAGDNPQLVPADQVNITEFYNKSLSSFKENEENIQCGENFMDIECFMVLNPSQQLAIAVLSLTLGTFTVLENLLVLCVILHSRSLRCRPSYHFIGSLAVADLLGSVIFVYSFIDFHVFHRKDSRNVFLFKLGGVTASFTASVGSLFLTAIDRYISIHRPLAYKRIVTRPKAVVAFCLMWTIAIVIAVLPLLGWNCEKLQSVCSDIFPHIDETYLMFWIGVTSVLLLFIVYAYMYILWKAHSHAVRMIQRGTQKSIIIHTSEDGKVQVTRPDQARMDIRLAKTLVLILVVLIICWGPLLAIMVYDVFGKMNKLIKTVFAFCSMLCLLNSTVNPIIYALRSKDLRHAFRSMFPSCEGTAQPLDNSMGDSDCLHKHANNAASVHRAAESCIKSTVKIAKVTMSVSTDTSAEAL
Description: Antagonist activity at CB1 receptor (unknown origin) expressed in RD-HGA16 cells assessed as inhibition of CP55940-induced calcium mobilization by fluorometric imaging plate reader analysis
For test [4], the target named is T1, Cannabinoid CB1 receptor/orexin receptor 1 complex (Homo sapiens). The settings on record: RD-HGA16. The source holds these as a separate data set.
Description: Antagonist activity at CB1-OX1 heterodimer (unknown origin) expressed in RD-HGA16 cells assessed as inhibition of orexin A-induced calcium mobilization by fluorometric imaging plate reader analysis

Our source for the Ke values is ChEMBL document CHEMBL3286373, “Toward the Development of Bivalent Ligand Probes of Cannabinoid CB1 and Orexin OX1 Receptor Heterodimers” (ACS Med Chem Lett, 2014).

Turning to `COc1cc2c(cc1OC)C(Cc1ccc(OC(=O)CCCCCCN(C)CCCCCCCCCCCCNC(=O)c3nn(-c4ccc(Cl)cc4Cl)c(-c4ccc(Cl)cc4)c3C)c(OC)c1)N(CC(=O)NCc1ccccc1)CC2` (centres undefined), the Ke is over 10 µM in test [1], over 10000 nM in test [2], 1100 nM in test [3] and 410 nM in test [4].
The like results for `COc1cc2c(cc1OC)C(Cc1ccc(OC(=O)CCCCCCN(C)CCCCCCCCCCNC(=O)c3nn(-c4ccc(Cl)cc4Cl)c(-c4ccc(Cl)cc4)c3C)c(OC)c1)N(CC(=O)NCc1ccccc1)CC2` (centres undefined) were, in that order, 5.9 µM, over 10000 nM, 1800 nM and 110 nM.
In the case of `COc1ccc(CC2c3cc(OC)c(OC)cc3CCN2CC(=O)NCc2ccccc2)cc1OC` (centres undefined), the Ke in test [2] was 200 nM.
Still for that read-out and setting: the result for `CCCC(=O)Oc1cc2c(cc1OC)CCN(CC(=O)NCc1ccccc1)C2Cc1ccc(OC)c(OC)c1` (centres undefined) reads 78 nM.
With `COc1cc2c(cc1OC)C(Cc1ccc(OC(=O)CCCCCCN(C)CCCCCCCNC(=O)c3nn(-c4ccc(Cl)cc4Cl)c(-c4ccc(Cl)cc4)c3C)c(OC)c1)N(CC(=O)NCc1ccccc1)CC2` (centres undefined), the Ke in test [1] is over 10 µM; in test [2], 8460 nM; in test [3] it was 1800 nM; in test [4], 610 nM.
As to `CCCC(=O)Oc1ccc(CC2c3cc(OC)c(OC)cc3CCN2CC(=O)NCc2ccccc2)cc1OC` (centres undefined), the Ke in test [2] was determined as 43 nM.
Take `COc1ccc(CC2c3cc(OC)c(OC)cc3CCN2C(C(=O)NCCCCCCCN(C)CCCCCCCNC(=O)c2nn(-c3ccc(Cl)cc3Cl)c(-c3ccc(Cl)cc3)c2C)c2ccccc2)cc1OC` (centres undefined): the Ke was over 10 µM in test [1], 5500 nM in test [2], 3000 nM in test [3] and 230 nM in test [4].
For `CCCCCCOc1ccc(CC2c3cc(OC)c(OC)cc3CCN2CC(=O)NCc2ccccc2)cc1OC` (centres undefined), in test [2], the Ke came to 120 nM.
Take `COc1ccc(CC2c3cc(OC(=O)CCCCCCN(C)CCCCOCCCCOCCCCOCCNC(=O)c4nn(-c5ccc(Cl)cc5Cl)c(-c5ccc(Cl)cc5)c4C)c(OC)cc3CCN2CC(=O)NCc2ccccc2)cc1OC` (centres undefined): the Ke in test [1] worked out at 4.5 µM; in test [2] it was 3500 nM; in test [3], 1800 nM; in test [4], 420 nM.
For `COc1ccc(CC2c3cc(OC(=O)CCCCCCN(C)CCCCCCCNC(=O)c4nn(-c5ccc(Cl)cc5Cl)c(-c5ccc(Cl)cc5)c4C)c(OC)cc3CCN2CC(=O)NCc2ccccc2)cc1OC` (centres undefined), in that order: over 10 µM, 8800 nM, 2100 nM and 1200 nM.
With `CCCCCCCNC(=O)[C@@H](c1ccccc1)N1CCc2cc(OC)c(OC)cc2C1Cc1ccc(OC)c(OC)c1` (some centres undefined), the Ke in test [2] was 22 nM.
On to `CCCCCCOc1cc2c(cc1OC)CCN(CC(=O)NCc1ccccc1)C2Cc1ccc(OC)c(OC)c1` (centres undefined), for which the Ke in test [2] stood at 310 nM.
Regarding `Cc1nc2ccc(NC(=O)Nc3ccnc4cccnc34)cc2o1`, the Ke in test [1] was 0.032 µM; in test [2], 45 nM; in test [3], over 10000 nM; in test [4], over 10000 nM.
For `CCCCCCCNC(=O)CN1CCc2cc(OC)c(OC)cc2C1Cc1ccc(OC)c(OC)c1` (centres undefined), the Ke in test [2] came out at 590 nM.
Turning to `COc1ccc(CC2c3cc(OCCCCCCC(=O)NCCOCCOCCOCCNC(=O)c4nn(-c5ccc(Cl)cc5Cl)c(-c5ccc(Cl)cc5)c4C)c(OC)cc3CCN2CC(=O)NCc2ccccc2)cc1OC` (centres undefined), the Ke in test [1] was over 10 µM; in test [2], 8600 nM; in test [3], 8000 nM; in test [4], 580 nM.
